In patent US20120046353A1 (priority 2010, published 2012):
pIC50: −log10 of the molar value. “Also recorded” adds a separate entry of the source.

Assays:
[1] = biological target: neuraminidase of novel influenza virus (Influenza A virus, UniProt C3W5S3); assay type: biochemical, novel influenza (H1N1) virus
neuraminidase = assay type: biochemical
[2] = biological target: neuraminidase of avian influenza virus (H9N2) (Influenza A virus, UniProt A9LRT3); experiment: biochemical; design: species or system avian influenza virus A/chicken/Korea/01310/2001(H9N2)
[3] = biological target: neuraminidase of swine influenza virus (H1N1) (Influenza A virus, UniProt Q20F35); assay type: biochemical, swine influenza virus A/Sw/Kor/CAN1/04 (H1N1)
[4] = IC50 for neuraminidase of avian influenza virus (H9N2)

## COc1c(C)c(O)c(C)c(O)c1C(=O)/C=C/c1ccccc1O [Compound 14, 2,2′,4′-trihydroxy-6′-methoxy-3′,5′-dimethylchalcone]
[1]
  Inhibitory activity against neuraminidase of novel influenza virus, in words: excellent inhibitory activity
neuraminidase
  Type of inhibition from Lineweaver Burk plots: non-competitive inhibitor

## COc1c(C)c(O)c2c(c1C)OC(c1ccccc1)CC2=O (centres unmarked) [Compound 6, 5-hydroxy-7-methoxy-6,8-dimethylflavanone]
[2]; [4]
  pIC50: < 3.30

## COc1cc(O)c(C)c2c1C(=O)CC(c1ccccc1)O2 (centres unmarked) [Compound 11, 7-hydroxy-5-methoxy-8-methylflavanone]
[2]; [4]
  pIC50: < 3.28

## COc1cc(O)c(C)c(O)c1C(=O)/C=C/c1ccccc1 [Compound 8, 2′,4′-dihydroxy-3′-methyl-6′-methoxychalcone]
[1]
  Inhibitory activity against neuraminidase of novel influenza virus, in words: excellent inhibitory activity
neuraminidase
  Type of inhibition from Lineweaver Burk plots: non-competitive inhibitor

## COc1c(C)c(O)c(C)c(O)c1C(=O)/C=C/c1ccc(O)cc1 [Compound 4, 4,2′,4′-trihydroxy-6′-methoxy-3′,5′-dimethylchalcone]
[1]
  Inhibitory activity against neuraminidase of novel influenza virus, in words: excellent inhibitory activity
neuraminidase
  Type of inhibition from Lineweaver Burk plots: non-competitive inhibitor
[3]
  Inhibitory mechanism against neuraminidase of swine influenza virus: non-competitive inhibitor that reversibly inhibits; also recorded: noncompetitive inhibitor

## COc1c(C)c(O)c(C)c(O)c1C(=O)/C=C/c1ccccc1 [Compound 5, 2′,4′-dihydroxy-6′-methoxy-3′,5′-dimethylchalcone]
[1]
  Inhibitory activity against neuraminidase of novel influenza virus, in words: excellent inhibitory activity
neuraminidase
  Type of inhibition from Lineweaver Burk plots: non-competitive inhibitor

## Cc1c(O)cc(O)c2c1OC(c1ccccc1)CC2=O (centres unmarked) [Compound 12, 8-methylpinocembrin]
[2]; [4]
  pIC50: < 3.26

## CCOC(=O)C1=C[C@@H](OC(CC)CC)[C@H](NC(C)=O)[C@@H](N)C1 [Tamiflu, oseltamivir phosphate, reference compound]
[2]; [4]
  pIC50: 7.87
[2]; IC50 of Tamiflu against neuraminidase of avian influenza virus in combination with compound 4
  pIC50: 8.83
